# Measured values: patent US20080119492A1, “Compositions and methods for treating cancer and other diseases characterized by abnormal cell proliferation” (priority 2005, published 2008)
# Tests used:
# SF 767 cells [1] = experiment: Clonogenic survival, ThAcr2 combined with X-rays; format: cell-based, human; conditions: 0.5 μM ThAcr2 for 14 days, replated, 2-Gy X-rays, corrected for ThAcr2 alone
# Method: (§1) To explore the effect of ThAcr2 in combination with ionizing radiation on GBM cells, clonogenic survival of SF 763 and SF 767 cells was analyzed. Although both cell lines were radio-resistant, the surviving fraction after 2 Gy was greater in SF 763 (80%) than in SF 767 cells (56%), indicating stronger resistance of SF 763 cells to radiation.
# (§2) For combination experiments, non-toxic sub-apoptotic ThAcr2 concentrations of 0.5 and 1 μM were utilized. […] SF 763 cells were treated with […] ThAcr2 for 7 days, then replated and irradiated with a 3 Gy-dose of X-rays. SF 767 cells were treated with 0.5 μM ThAcr2 for 14 days, then replated and irradiated with a 2-Gy dose. […] The combination of ThAcr2 with radiation was additive when the ThAcr2 treatment started after irradiation.
# SF 763 cells [2] = experiment: Clonogenic survival, ThAcr2 combined with X-rays; format: cell-based, human; conditions: 1 μM ThAcr2 for 7 days, replated, 3 Gy X-rays, corrected for ThAcr2 alone
# Method: as §1, §2
# SF 767 cells [3] = experiment: Long-term (50 days) treatment with ThAcr2; format: cell-based, human; conditions: 1 μM ThAcr2 for 50 days, from day 30
# Method: (§3) To further investigate the tumor-growth inhibition effect of ThAcr2 as a single agent, the GBM cells were exposed to 1 μM ThAcr2 for 50 days.
# SF 763 cells [4] = experiment: Long-term (50 days) treatment with ThAcr2; format: cell-based, human; conditions: from day 30
# Method: as §3
# glioblastoma cells = experiment: Administration of compositions comprising ThAcr2 to glioblastoma cells; format: cell-based
# [5] = system: telomere and telomerase (hTERT) in GBM cell lines SF 763 and SF 767; experiment: Effects on telomere and telomerase (telomere length, hTERT expression by real-time RT-PCR); format: cell-based, human; conditions: 1 μM ThAcr2, 7 and 14 days
# Method: (§4) The effects of 1 μM ThAcr2 on telomere and telomerase after 7 and 14 days of treatment were evaluated.
# SF 763 cell = experiment: Cytogenetic analysis of telomere fusions; format: cell-based, human
# Method: The fusion frequency was 0.3 in untreated cells and 1.6 in ThAcr2-treated cells.
# as §4
# [6] = system: model guanine quadruplexes inspired from human telomeres; experiment: Affinity for guanine quadruplexes; format: binding; conditions: 1:2 mixture of mono- and di-cation species
# From the text: U-shaped molecules holding two potentially intercalating units 7 Å apart have been designed to have a moderate affinity for duplex DNA on the basis of the nearest neighbor exclusion principle but may display strong binding affinity for other architectures such as guanine quadruplexes.
# SF 767 cells [7] = experiment: Growth of GBM cells in continuous 14-day culture with ThAcr2; format: cell-based, human; conditions: 0.5, 1 and 2 μM ThAcr2, continuous 14 days
# Method: (§5) GBM cells were maintained in culture for 14 days in the presence of 0.5, 1 and 2 μM ThAcr2.
# SF 763 cells [8] = experiment: as above; format: cell-based, human; conditions: 0.5, 1 and 2 μM ThAcr2, continuous 14 days, more pronounced effect on SF 763
# Method: as §5
# [9] = system: GBM cell lines SF 763 and SF 767; experiment: Short-term (3 days) cell viability; format: cell-based, human; conditions: 0.5, 1 and 2 μM
# GBM tumor cells = experiment: Clonogenic survival, ThAcr2 combined with radiation, schedule of combination; format: cell-based, human
# Method: as §1, §2
# GBM cells = experiment: Flow cytometry of cell cycle distribution and apoptosis (annexin-propidium iodide); format: cell-based, human; conditions: 7 days
# Method: Using flow cytometry, cell cycle distribution and apoptosis in cells treated for 7 days with 0.5-2 μM ThAcr2 were examined. […] The percentage of cells in the G2/M phase increased from 10% to 20%. The annexin-propidium iodide (apoptotic) fraction was essentially identical (9-11%) in control and treated cells at lower ThAcr2 concentrations ([…]) but increased to 34% in cells treated with 2 μM ThAcr2.
substance,measurement,setting,value
"4,6-bis-(6-(10-N-methylacrid-9-ylinium)pyridin-2-yl)-pyrimidine bistriflate [ThAcr2]",reduction of surviving fraction of tumor cells,SF 767 cells [1],2.3 fold
same,reduction of surviving fraction of tumor cells,SF 763 cells [2],2.5 fold
same,rate of cell proliferation after long-term treatment,SF 767 cells [3],increase in the rate of cell proliferation
same,rate of cell proliferation after long-term treatment,SF 763 cells [4]; 1 μM ThAcr2 for 50 days,increase in the rate of cell proliferation
same,overexpression of telomerase,SF 763 cells [4]; 1 μM ThAcr2 long-term,up to 7 fold
same,glioblastoma cells after administration,glioblastoma cells,reduction of glioblastoma cells
same,telomere length,[5],did not reduce telomere length
same,telomere fusions (cytogenetic analysis),"SF 763 cell; 1 μM ThAcr2, day 7",multiple telomere fusions
same,telomere fusion frequency,"SF 763 cell; SF 763 metaphase, FIG. 3, untreated cells 0.3",1.6
same,affinity for model guanine quadruplexes,[6],strong affinity
same,tumor cell growth,SF 767 cells [7],inhibited tumor cell growth
same,tumor cell growth,SF 763 cells [8],inhibited tumor cell growth
same,short-term cell viability,[9],non-toxic
same,clonogenic survival with combination therapy versus radiation alone,"GBM tumor cells; FIG. 4, P<0.001",markedly decreased
same,combination of ThAcr2 with radiation,GBM tumor cells; ThAcr2 treatment started after irradiation,additive
same,combination of ThAcr2 with radiation,GBM tumor cells; cells continuously treated before and after irradiation,supra-additive or had a synergistic effect
same,annexin-propidium iodide (apoptotic) fraction,GBM cells; 2 μM ThAcr2,34%
same,percentage of cells in the G2/M phase,"GBM cells; 0.5-2 μM ThAcr2, untreated 10%",20%
same,annexin-propidium iodide (apoptotic) fraction,"GBM cells; lower ThAcr2 concentrations (0.5 and 1 μM), identical in control",9-11%
